This assay concerns the target human TrkA (Homo sapiens (Human), UniProt P04629). The assay is described as follows: Human TrkA inhibition assay (Test Example 2). In kind it is biochemical. The procedure:
Seven point five μL per well of human TrkA (PV3144, Lifetechnologies, final concentration: 1 nmol/L) suspended in the assay buffer (100 mmol/L 4-(2-hydroxyethyl)-1-piperazineethanesulfonic acid (HEPES), 10 mmol/L magnecium chloride, 0.003 vol % Brij-35, 0.004 vol % Tween20 and 1 mmol/L dithiothreitol (DTT)) was applied in a 384 well plate and the plate was pre-incubated for 15 min at room temperature with 0.4 μL of each compound (final concentration: 200 μmol/L-1 pmol/L) dissolved in DMSO. Then, fluorescent substrate (FL-peptide 27, 760424, PerkinElmer, final concentration: 1.5 μmol/L) and ATP (final concentration 500 μmol/L) dissolved in the assay buffer was added in each well. After the incubation of 120 min at 37° C., fifteen μL of termination buffer (100 mmol/L HEPES, 40 mmol/L ethylenediaminetetraacetic acid (EDTA), 10 mmol/L magnecium chloride, 0.003 vol % Brij-35, 0.004 vol % Tween20, 1 mmol/L DTT and 0.16 vol % Coating Reagent 3) was added in each well to stop the enzyme reaction. Fluorescent intensities (FI) of phosphorylated and non-phosphorylated fluorescent substrates were measured by LabChip EZReader II (Caliper LifeSciences, Inc.), and conversion ratio (CR) was calculated by the following formula-1. The CR in the well applied with DMSO alone was used as a negative control and the CR in the well without applying TrkA was used as a positive control. The inhibitory effect of each compound on TrkA phosphorylation was calculated by the following formula-2. CR (%)=(FI of phosphorylated substrate/(FI of phosphorylated substrate+FI of non-phosphorylated substrate))×100 (Formula-1) Phosphorylation inhibition (%)=(1−(CR with compound treatment−CR of positive control)/(CR of negative control−CR of positive control))×100 (Formula-2)
IC50 values (nmol/L) were determined by the logistic regression using the inhibition data in 10 points of 3-fold dilution series at a compound concentration range of 20 nmol/L to 1 pmol/L, or 10 points of 3-fold dilution series at the range of 2 μmol/L to 0.1 nmol/L, or 10 points of 3-fold dilution series at the range of 200 μmol/L to 10 nmol/L, or 15 points of 3-fold dilution series at the range of 200 μmol/L to 0.04 nmol/L.
The evaluation results of the compounds in the present invention are indicated as follows. IC50 values of 0 to 100 nM, 100 to 1000 nM and over 1000 nM were shown as “A”, “B” and “C”, respectively.

[1] abbreviates: human TrkA 1 nmol/L, ATP 500 μmol/L, 120 min at 37° C., read-out: IC50 values (TrkA phosphorylation inhibition).
Where [2] appears, read: Table 152, human TrkA inhibition, read-out: IC50_nM.
Where [3] appears, read: Table 153, human TrkA inhibition, read-out: IC50.

pIC50: −log10 of the molar value. Read-outs that look alike come from different tables or passages of the source.

Chain of human TrkA (P04629 440-796): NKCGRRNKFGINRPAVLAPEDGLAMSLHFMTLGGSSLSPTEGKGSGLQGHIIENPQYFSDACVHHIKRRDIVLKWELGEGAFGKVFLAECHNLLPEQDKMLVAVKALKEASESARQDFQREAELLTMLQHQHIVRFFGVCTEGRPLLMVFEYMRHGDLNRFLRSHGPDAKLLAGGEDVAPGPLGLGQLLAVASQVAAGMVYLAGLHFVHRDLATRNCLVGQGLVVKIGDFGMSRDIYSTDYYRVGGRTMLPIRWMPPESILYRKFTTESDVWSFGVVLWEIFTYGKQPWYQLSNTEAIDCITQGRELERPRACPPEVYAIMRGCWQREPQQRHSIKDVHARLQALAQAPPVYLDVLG

For the compound `Cc1c(-c2cnn(C)c2)nn(-c2ccccc2)c1NC(=O)N[C@@H]1OC(C)(C)O[C@H]1c1ccccc1` (racemic) [Compound I-1], under setting [1], the pIC50 was 5.28. Turning to `Cc1c(-c2cnn(C)c2)nn(-c2ccccc2)c1NC(=O)N[C@@H]1CN(Cc2csnn2)O[C@H]1c1ccccc1` (racemic) [Compound I-2], under setting [2], the pIC50 is 6.00 to 7.00. As to `CCN1C[C@@H](NC(=O)Nc2c(C)c(-c3cnn(C)c3)nn2-c2ccccc2)[C@H](c2ccccc2)O1` (racemic) [Compound I-3], the pIC50 under setting [1] was 6.92.

For the compound `COCC[C@@H]1O[C@@H](NC(=O)Nc2c(C)c(-c3cnn(C)c3)nn2-c2ccccc2)[C@H](c2ccccc2)O1` (racemic) [Compound I-5], under setting [2], the pIC50 is over 7.00. As for `COCCN1C[C@@H](NC(=O)Nc2c(C)c(-c3cnn(C)c3)nn2-c2ccccc2)[C@H](c2ccc(F)c(F)c2)O1` (racemic) [Compound I-8], the pIC50 under setting [2] is over 7.00. For the compound `COCCN1C[C@@H](NC(=O)Nc2c(C)c(-c3cnn(C)c3)nn2-c2ccccc2)[C@H](c2ccnc(Cl)c2)O1` (racemic) [Compound I-9], the pIC50 under setting [2] was over 7.00.

Turning to `COCCN1C[C@@H](NC(=O)Nc2c(C)c(-c3cnn(C)c3)nn2-c2ccccc2)[C@H](c2ccc(F)c(F)c2)N1` (racemic) [Compound I-10], the pIC50 under setting [1] is 6.77. Same read-out and setting: for `COCCN1C[C@@H](NC(=O)Nc2c(C)c(-c3ccc4c(cnn4C)c3)nn2-c2ccccc2)[C@H](c2ccc(F)c(F)c2)O1` (racemic) [Compound I-22] the value was 9.09. Regarding `COCC[C@@H]1C[C@@H](NC(=O)Nc2c(C)c(-c3cnn(C)c3)nn2-c2ccccc2)[C@H](c2ccc(F)c(F)c2)O1` (racemic) [Compound I-23], the pIC50 under setting [2] was over 7.00. The same measure, in the same setting: for `COCCN1C[C@@H](NC(=O)Nc2c(C)c(-c3cnc(C)nc3)nn2-c2ccccc2)[C@H](c2ccc(F)c(F)c2)O1` (racemic) [Compound I-26] the value was over 7.00. Still for that read-out and setting: in the case of `COCCN1C[C@@H](NC(=O)Nc2c(C)c(-c3ccc(OCc4ccccc4)nc3)nn2-c2ccccc2)[C@H](c2ccc(F)c(F)c2)O1` (racemic) [Compound I-27] it was over 7.00.

`COCC[C@@H]1C[C@@H](NC(=O)Nc2c(C)c(-c3cnc(C)nc3)nn2-c2ccccc2)[C@H](c2ccc(F)c(F)c2)O1` (racemic) [Compound I-28]: under setting [1], the pIC50 was 8.60. In the case of `COCCN1C[C@@H](NC(=O)Nc2c(C)c(C3=CCN(C(=O)OC(C)(C)C)CC3)nn2-c2ccccc2)[C@H](c2ccc(F)c(F)c2)O1` (racemic) [Compound I-29], the pIC50 under setting [2] is over 7.00. Still for that read-out and setting: in the case of `COCCN1C[C@@H](NC(=O)Nc2c(C)c(C3=CCNCC3)nn2-c2ccccc2)[C@H](c2ccc(F)c(F)c2)O1` (racemic) [Compound I-30] it was over 7.00. On to `COCCN1C[C@@H](NC(=O)Nc2c(C)c(C3=CCN(C(C)=O)CC3)nn2-c2ccccc2)[C@H](c2ccc(F)c(F)c2)O1` (racemic) [Compound I-31], for which, under setting [1], the pIC50 was 9.11. As for `COCCN1C[C@@H](NC(=O)Nc2c(C)c(-c3ccc(=O)[nH]c3)nn2-c2ccccc2)[C@H](c2ccc(F)c(F)c2)O1` (racemic) [Compound I-32], the pIC50 under setting [2] was over 7.00. As to `COCCN1C[C@@H](NC(=O)Nc2c(C)c(-c3ccc(C(=O)OC(C)(C)C)cc3)nn2-c2ccccc2)[C@H](c2ccc(F)c(F)c2)O1` (racemic) [Compound I-33], under setting [2], the pIC50 is over 7.00. Regarding `COCCN1C[C@@H](NC(=O)Nc2c(C)c(-c3cnc(CO)nc3)nn2-c2ccccc2)[C@H](c2ccc(F)c(F)c2)O1` (racemic) [Compound I-34], under setting [2], the pIC50 is over 7.00.

For the compound `COCCN1C[C@@H](NC(=O)Nc2c(C)c(-c3ccc(C(=O)O)cc3)nn2-c2ccccc2)[C@H](c2ccc(F)c(F)c2)O1` (racemic) [Compound I-35], the pIC50 under setting [2] is over 7.00. On to `CCN1CCC(NC(=O)c2ccc(-c3nn(-c4ccccc4)c(NC(=O)N[C@@H]4CN(CCOC)O[C@H]4c4ccc(F)c(F)c4)c3C)cc2)CC1` (racemic) [Compound I-36], for which the pIC50 under setting [1] was 8.85. Take `COCCN1C[C@@H](NC(=O)Nc2c(C)c(C3=CCN(C(=O)OC(C)(C)C)CC3)nn2-c2ccccc2)[C@H](c2ccnc(F)c2)O1` (racemic) [Compound I-41]: the pIC50 under setting [2] was over 7.00. In the case of `COCCN1C[C@@H](NC(=O)Nc2c(C)c(C3=CCN(C(C)=O)CC3)nn2-c2ccccc2)[C@H](c2ccnc(F)c2)O1` (racemic) [Compound I-42], the pIC50 under setting [2] is over 7.00.

Take `COCCN1C[C@@H](NC(=O)Nc2c(C)c(-c3cnc4nc(C)nn4c3)nn2-c2ccccc2)[C@H](c2ccc(F)c(F)c2)O1` (racemic) [Compound I-43]: under setting [2], the pIC50 is over 7.00. Still for that read-out and setting: for `COCCN1C[C@@H](NC(=O)Nc2c(C)c(-c3cnc4ncnn4c3)nn2-c2ccccc2)[C@H](c2ccc(F)c(F)c2)O1` (racemic) [Compound I-44] the value was over 7.00. Take `COCCN1C[C@@H](NC(=O)Nc2c(C)c(-c3cnc(C)nc3)nn2-c2ccccc2)[C@H](c2cnc(F)c(F)c2)O1` (racemic) [Compound I-45]: the pIC50 under setting [3] is over 7.00. Still for that read-out and setting: for `COCCN1C[C@@H](NC(=O)Nc2c(C)c(C3=CCN(C(=O)OC(C)(C)C)CC3)nn2-c2ccccc2)[C@H](c2cnc(F)c(F)c2)O1` (racemic) [Compound I-46] the value was over 7.00. On to `COCCN1C[C@@H](NC(=O)Nc2c(C)c(-c3cnc(C)nc3)nn2-c2ccccc2)[C@H](c2ccnc(F)c2)O1` (racemic) [Compound I-47], for which the pIC50 under setting [1] was 8.40. Regarding `COCCN1C[C@@H](NC(=O)Nc2c(C)c(C3=CCNCC3)nn2-c2ccccc2)[C@H](c2cnc(F)c(F)c2)O1` (racemic) [Compound I-48], under setting [3], the pIC50 was over 7.00. Regarding `COCCN1C[C@@H](NC(=O)Nc2c(C)c(C3=CCN(C(C)=O)CC3)nn2-c2ccccc2)[C@H](c2cnc(F)c(F)c2)O1` (racemic) [Compound I-49], the pIC50 under setting [3] is over 7.00. In the case of `COCCN1C[C@@H](NC(=O)Nc2c(C)c(-c3cccc(C(=O)OC(C)(C)C)c3)nn2-c2ccccc2)[C@H](c2ccc(F)c(F)c2)O1` (racemic) [Compound I-50], the pIC50 under setting [3] was over 7.00. With `COCCN1C[C@@H](NC(=O)Nc2c(C)c(-c3cccc(C(=O)O)c3)nn2-c2ccccc2)[C@H](c2ccc(F)c(F)c2)O1` (racemic) [Compound I-51], the pIC50 under setting [3] is over 7.00. Turning to `COCCN1C[C@@H](NC(=O)Nc2c(C)c(-c3cnn(C)c3)nn2-c2ccccc2)[C@H](c2cnc(F)c(F)c2)O1` (racemic) [Compound I-52], the pIC50 under setting [3] is over 7.00.

Regarding `COCCN1C[C@@H](NC(=O)Nc2c(C)c(C3=CCN(C(=O)CO)CC3)nn2-c2ccccc2)[C@H](c2ccc(F)c(F)c2)O1` (racemic) [Compound I-53], the pIC50 under setting [3] is over 7.00. As to `COCC[C@@H]1C[C@@H](NC(=O)Nc2c(C)c(C3=CCN(C(=O)OC(C)(C)C)CC3)nn2-c2ccccc2)[C@H](c2ccc(F)c(F)c2)O1` (racemic) [Compound I-54], the pIC50 under setting [3] was over 7.00. For `COCC[C@@H]1C[C@@H](NC(=O)Nc2c(C)c(C3=CCNCC3)nn2-c2ccccc2)[C@H](c2ccc(F)c(F)c2)O1` (racemic) [Compound I-55], the pIC50 under setting [3] was over 7.00. Still for that read-out and setting: in the case of `COCC[C@@H]1C[C@@H](NC(=O)Nc2c(C)c(C3=CCN(C(=O)CO)CC3)nn2-c2ccccc2)[C@H](c2ccc(F)c(F)c2)O1` (racemic) [Compound I-56] it was over 7.00; in that of `COCCN1C[C@@H](NC(=O)Nc2c(C)c(-c3ccc(C#N)cc3)nn2-c2ccccc2)[C@H](c2cnc(F)c(F)c2)O1` (racemic) [Compound I-60], over 7.00; in that of `COCCN1C[C@@H](NC(=O)Nc2c(C)c(OCC(C)(C)O)nn2-c2ccccc2)[C@H](c2ccc(F)c(F)c2)O1` (racemic) [Compound I-61], over 7.00. Consider `CCN1CCC(NC(=O)c2cc(-c3nn(-c4ccccc4)c(NC(=O)N[C@@H]4CN(CCOC)O[C@H]4c4ccc(F)c(F)c4)c3C)ccn2)CC1` (racemic) [Compound I-62], for which, under setting [3], the pIC50 was over 7.00. With `COCCN1C[C@@H](NC(=O)Nc2c(C)c(-c3cnc4cnn(C)c4c3)nn2-c2ccccc2)[C@H](c2ccnc(F)c2)O1` (racemic) [Compound I-63], the pIC50 under setting [3] is over 7.00. In the case of `CCN1CCC(NC(=O)c2cc(-c3nn(-c4ccccc4)c(NC(=O)N[C@@H]4C[C@@H](CCOC)O[C@H]4c4ccc(F)c(F)c4)c3C)ccn2)CC1` (racemic) [Compound I-64], under setting [3], the pIC50 is over 7.00.
